Here are results for 7 compounds from patent US20160201067A1, “Composition for Enhancing Transgene Expression in Eukaryotic Cells and Method for Enhancing Production of a Target Protein Encoded by a Transgene” (SILEZIA GROUP PTE. LTD, priority 2013, published 2016).

Experiment [1] concerns mouse peritoneal macrophages transduced with Ad-GFP. Nature of the experiment: Enhancement of GFP expression in peritoneal macrophages transduced with Ad-GFP, PRR agonists (Example 4). The format is cell-based. Conditions: Ad-GFP 2 × 10^7 PFU/ml, 4 days. The procedure:
Mouse peritoneal macrophages (BALB/c female mice, Stolbovaya breeding nursery) were washed with physiological saline solution, pelleted by centrifugation at 1200 rpm for 10 min, suspended in the complete cell culture medium (CCM, consisting of RPMI-1640 medium supplemented with 10% fetal calf serum, 2 mM L-glutamine, 50 μM of (3-mercaptoethanol, and 10 μg/ml of gentamycin) at a concentration of one million cells per 1 ml, and incubated over night in 90 mm Petri dishes at 37° C. and 5% CO2. On the next day, nonadherent cells were removed by washing with warm phosphate buffered saline (PBS, pH 7.4), and adherent cells were covered with Versene solution, kept at 4° C. for 60 min in a refrigerator, and then detached from the culture dish by washing with Versene solution using 5 ml pipette. […] Cell cultures were incubated for 4 days at 37° C. and 5% CO2.
Confocal microscopy images (FIG. 3A) show macrophages transduced with Ad-GFP and additionally activated by TLR4 agonist (10 μg/ml of APG, right image), as compared to control macrophages transduced with Ad-GFP without addition of APG (left image). […] The quantitative assay of GFP production was carried out using flow cytometry which determined both the absolute number of cells containing GFP and the GFP content in each cell by measuring fluorescence intensity of a single cell. The product of the number of fluorescent cells and the fluorescence intensity of each cell is proportional to the number of synthesized GFP molecules.
As is described earlier, peritoneal macrophages were transduced with Ad-GFP (2×10^7 PFU/ml) in the absence or presence of one of the above mentioned PRR agonists. Cell cultures were incubated at 37° C. and 5% CO2 for four days. After the end of incubation, cells were detached by washing with a cold Versene solution, and the percentage and absolute number of cells having green fluorescence and the intensity of cell fluorescence were determined using a FACSAria II flow cytometer. The absolute count of cells was normalized by calibration beads containing a known concentration of microspheres (CountBright Invitrogen), and discrimination between live and dead cells was carried out using a DNA-specific dye DAPI. Typical histograms of GFP fluorescence signal after the transduction of macrophages by Ad-GFP without additional activation of cells (FIG. 3D) or with additional activation of cells with CL097, the agonist of TLR7 and TLR8 (FIG. 3E), are shown.
The quantitative assessment of the enhancement of target GFP expression was performed by the formula:
K=MFI×N/MFIcontr×Ncontr, (1)
K is the enhancement (fold increase) of GFP expression;
MFI is the mean intensity of fluorescence of cells transduced with Ad-GFP with additional activation by an agonist;
MFIcontr is the mean intensity of fluorescence of cells transduced with Ad-GFP (control) without additional activation;
N is the number of fluorescent cells after the transduction with Ad-GFP with additional activation by an agonist; and
Ncontr is the number of fluorescent cells (control) after the transduction with Ad-GFP without additional activation.

The subject of experiment [2] is mouse peritoneal macrophages. Nature of the experiment: Enhancement of transgenic SEAP expression in peritoneal macrophages (Example 6). Conditions: TNF-α 10 ng/ml or APG 10 μg/ml vs Ad-SEAP alone.
Protocol: A test liquid was clarified by centrifugation at 14,000 g for 2 min, warmed-up at 65° C. for 5 min to inhibit endogenous phosphatases, then 20 μl aliquots were transferred into each well of a 96-well plate to 130 μl of reaction buffer (0.5 M NaHCO3, 0.5 MM MgCl2, pH 9.8), and incubated at 37° C. for 10 min. Then 50 μl of 60 μM p-nitrophenyl phosphate in reaction buffer were added, and the optical density was measured at 405 nm at fixed intervals. The SEAP activity was expressed in mU/ml, considering 1 mU/ml corresponds to an increase in optical density of 0.04 U per 1 min.
Mouse peritoneal macrophages were obtained and incubated as described in the example 4. Cells were incubated in triplet culture wells with addition of Ad-GFP at 2×10^7 PFU per well in combination with TNF-α (10 ng/ml) or APG (Russian Patent no. 2195308, 10 μg/ml). In the negative control cultures, macrophages were transduced with Ad-SEAP (2×10^7 PFU) without any cell activating compound. After 4 days, the activity of SEAP was measured in the culture medium, as described in the example 2.

“Lauroyl-g-D-Glu-D-mDAP and Lauroyl-g-D-Glu-L-mDAP [C12-iE-DAP]”: in experiment [1] (agonist 20 μg/ml), the “Fold increase in the expression of GFP, calculated according to the formula (1), Mean” value is given as 3.1. As to `CCOCc1nc2c([nH]1)c(N)nc1ccccc12` [CL097], in experiment [1] (agonist 2.5 μg/ml), the “Fold increase in the expression of GFP, calculated according to the formula (1), Mean” value is 14.2. Turning to `CC(C)Cn1cnc2c(N)nc3ccccc3c21` [Imiquimod, imiquimod], the “Fold increase in the expression of GFP, calculated according to the formula (1), Mean” value in experiment [1] (agonist 10 μg/ml) is given as 2.03. In the case of ODN 1826, the “Fold increase in the expression of GFP, calculated according to the formula (1), Mean” value in experiment [1] (agonist 0.6 μg/ml) is recorded as 1.43.

Flagellin: the “Fold increase in the expression of GFP, calculated according to the formula (1), Mean” value in experiment [1] (agonist 1 μg/ml) was 2.13. With TNF-α, in experiment [2], the “Enhancement coefficient (SEAP expression in peritoneal macrophages)” value worked out at 1.8. For lipoteichoic acid [LTA], the “Fold increase in the expression of GFP, calculated according to the formula (1), Mean” value in experiment [1] (agonist 10 μg/ml) is 2.10.
